{
  "source": "patent US20230390403A1",
  "about": "“COMPOSITIONS AND METHODS FOR DRUG DELIVERY” (North Carolina State University, priority 2020, published 2023)",
  "key": {"[1]": {"assay": "In vitro PTX release: hydrolysis of PTX succinic acid in PBS (HPLC)", "assay_type": "physicochemical", "details": "for half-life: PBS, 37° C.; for PTX-succinate remaining intact: after 24 hours", "experimental": "In Vitro PTX Release. Hydrolytic studies of PTX succinic acid were carried out at 37° C. in PBS containing 0.01% DMSO and 0.1% Tween 80 at pH 7.4 and pH 6.5. 5.33 μM of PTX-succinic acid was dissolved in a 5 ml of medium and kept continuously stirring at 150 rpm/min. 50 μL of sample was removed at predetermined time intervals of 0, 24, 48, 72 and 96 hours and replaced with 50 μL of fresh media. Removed samples were mixed with 50% of acetonitrile and analyzed using Agilent 1290 HPLC system with Agilent 2.1×50 mm C18 column and mobile phase consisting of 60% ammonium formate and 40% acetonitrile. Concentration of PTX-SA and free PTX were determined using calibration curves.\nThe hydroxyl group at the C-2′ position is necessary for paclitaxel's anticancer activities. Therefore, the succinate ester must hydrolyze to achieve desired antitumor responses (41). We measured paclitaxel release from PTX-succinate in PBS at 37° C. in both neutral pH and the slightly acidic conditions (pH˜6.5) commonly observed in the tumor microenvironments. Disappearance of the PTX succinate peak and appearance of PTX peak was quantified using HPLC. […] After 24 hours, nearly 82% of PTX-succinate remained intact in acidic conditions, while 54% remained in the neutral condition. […] In contrast at the more acidic pH, paclitaxel continued its accumulation in the release media, with 60% of initial dose observed at 96 hours."}, "[2]": {"test_system": "U87 tumor", "assay": "Intratumoral anchoring of Cy7-maleimide (IVIS fluorescence)", "assay_type": "in vivo, nude mice", "details": "50 uL of 0.2 mM, 1 week after injection", "experimental": "FIG. 13 illustrates the intratumoral anchoring of Cy7-maleimide after one week.\nTo investigate whether active maleimide molecules can anchor to tissue in a tumor, nude mice were injected subcutaneously with U87 tumor cells mixed with Matrigel. Once tumor reached 100 mm^3, Cy7-maleimide (50 uL of 0.2 mM) was injected intratumorally and monitored for fluorescence over 1 week using an IVIS imager. ICG/ICG excitation and emission filters were used for all IVIS images. […] This validated that anchorable drug compounds containing a maleimide tissue binding moiety could efficiently react with thiol moieties present in proteins found within tumors following intratumoral injection."}, "[3]": {"test_system": "dermal tissue", "assay": "Intradermal anchoring of Cy7-maleimide (IVIS fluorescence)", "assay_type": "in vivo, CD-1 mice", "experimental": "FIG. 12 is a plot showing the percent of the initial injection dose (% ID) maintained one day and one week following injection of Cy7-maleimide alone, Cy7-maleimide plus tris(2-carboxyethyl)phosphine (TCEP), and Cy7-maleimide plus mercaptoethanol (MCE).\nTo investigate whether maleimide molecules can anchor to dermal tissue by binding to available thiol groups, CD-1 mice were injected intradermally with Cy7-maleimide (50 uL of 0.2 mM) and monitored for fluorescence over 1 week using an IVIS imager. ICG/ICG excitation and emission filters were used for all IVIS images. Cy7-maleimide plus TCEP was used to attempt to increase free thiols by breaking disulfide bonds."}, "[4]": {"test_system": "U87 tumor", "assay": "Tumor inhibition and survival after intratumoral or intravenous aldoxorubicin", "assay_type": "in vivo, nude mice", "details": "intratumoral 10.5 mg/kg; compared to saline and intravenous aldoxorubicin", "description": "FIGS. 14A-14D show the impact of intratumoral anchoring and local tumor release of a chemotherapeutic agent (aldoxorubicin) functionalized with a maleimide tissue binding moiety. FIG. 14A plots the percent change in tumor volume as a function of days after injection for mice treated with saline injection alone (control), intravenous injection of aldoxorubicin, and intratumoral injection of aldoxorubicin. FIG. 14B is a plot showing the probability of survival for mice treated with saline injection alone (control), intravenous injection of aldoxorubicin, and intratumoral injection of aldoxorubicin. FIG. 14C is a plot comparing tumor volume 7 days after treatment with saline injection alone (control), treatment with intravenous injection of aldoxorubicin, and treatment with intratumoral injection of aldoxorubicin. FIG. 14D is a plot comparing tumor volume 14 days after treatment with saline injection alone (control), treatment with intravenous injection of aldoxorubicin, and treatment with intratumoral injection of aldoxorubicin.\nIn a further proof-of-principle study, aldoxorubicin was used to validate the concept of anchoring (and subsequent local tumor release) of a chemotherapeutic agent functionalized with a maleimide tissue binding moiety. […] Tumor size and weight were measured at varying intervals following injection. […]"}, "[5]": {"assay": "Aqueous solubility compared to paclitaxel", "assay_type": "physicochemical"}, "[6]": {"test_system": "KPC 4662 murine pancreatic tumor", "assay": "In vivo assessment of PTX-sNHS induced apoptosis (cleaved caspase 3 staining)", "design": "species or system C57BL/6 mice", "details": "72 hours after single intratumoral injection, 20 mg/kg", "excerpt": "To assess the ability of intratumoral depots to release free paclitaxel and induce apoptotic tumor cell death, ectopic pancreatic tumor model was developed by subcutaneous inoculation of approximately 1*10^6 KPC 4662 murine pancreatic tumor cells in 1:1 PBS/matrigel (Corning/cat #354234) solution on the dorsal flanks of 8 week old female albino C57BL/6 mice (Charles River). Once the tumors were approximately 100 mm^3 in volume, animals were randomly divided into four groups to receive either no treatment or single intratumoral injection of vehicle (50% NMP: alfa aesar, #AA44063-K2, 50% Saline: cat #470302-026, VWR), free paclitaxel (Medkoo, cat #100690, 20 mg/kg) and paclitaxel-sNHS (n=3/group, 20 mg/kg). […] For quantification of apoptosis, CC-3-stained vs hematoxylin-stained areas were measured with respect to total tumor area (45, 46).\nTo investigate whether intratumoral injection of TRAP paclitaxel has therapeutic efficacy in vivo, we studied paclitaxel-induced apoptosis in the fibrous, syngeneic KPC 4662 pancreatic adenocarcinoma mouse model. […] For quantification of apoptosis, whole tissue sections were scanned to detect CC-3 positive areas and quantified to assess the percent of whole tumor area undergoing apoptosis. […] Quantification of apoptosis was performed by computationally separating CC-3 stained from hematoxylin stained areas (45). […]"}},
  "data": [
    {"compound": "2′-O-succinyl paclitaxel [PTX-succinate]", "values": [
      {"measurement": "half-life", "setting": "[1]; neutral pH", "result": "~37", "unit": "h"},
      {"measurement": "half-life", "setting": "[1]; pH 6.5", "result": "~56", "unit": "h"},
      {"measurement": "free paclitaxel in release media, of initial dose", "setting": "[1]; acidic pH (6.5), 96 hours", "result": 60, "unit": "%"},
      {"measurement": "PTX-succinate remaining intact", "setting": "[1]; acidic conditions (pH 6.5)", "result": "~82", "unit": "%"},
      {"measurement": "PTX-succinate remaining intact", "setting": "[1]; neutral condition", "result": 54, "unit": "%"},
      {"measurement": "free paclitaxel released (maximum)", "setting": "[1]; neutral pH, 96 hours", "result": 32, "unit": "%"}
    ]},
    {"compound": "C[N+]1=C(C=CC2=CC(=CC=C3N(CCCCCC(=O)NCCN4C(=O)C=CC4=O)c4ccccc4C3(C)C)CCC2)C(C)(C)c2ccccc21.[Cl-]", "note": "[Cy7-maleimide, cyanine 7 maleimide]", "values": [
      {"measurement": "injection dose maintained", "setting": "[2]", "result": "approximately 18%"},
      {"measurement": "skin irritation or skin toxicity", "setting": "[3]; intradermal injection, monitored over 1 week", "result": "No skin irritation or skin toxicity was observed"},
      {"measurement": "injection dose maintained", "setting": "[3]; intradermal, 50 uL of 0.2 mM, after 1 week", "result": "approximately 10%"}
    ]},
    {"compound": "COc1cccc2c1C(=O)c1c(O)c3c(c(O)c1C2=O)C[C@@](O)(/C(CO)=N/NC(=O)CCCCCN1C(=O)C=CC1=O)C[C@@H]3O[C@H]1C[C@H](N)[C@H](O)[C@H](C)O1", "note": "[aldoxorubicin]", "values": [
      {"measurement": "survival probability", "setting": "[4]", "result": "improved"},
      {"measurement": "tumor inhibition", "setting": "[4]", "result": "improved"}
    ]},
    {"compound": "CC(=O)O[C@H]1C(=O)[C@@]2(C)[C@H]([C@H](OC(=O)c3ccccc3)[C@]3(O)C[C@H](OC(=O)[C@H](O)[C@@H](NC(=O)c4ccccc4)c4ccccc4)C(C)=C1C3(C)C)[C@]1(OC(C)=O)CO[C@@H]1C[C@@H]2O", "note": "[paclitaxel]", "values": [
      {"measurement": "aqueous solubility", "setting": "[5]", "result": "poorly soluble"},
      {"measurement": "apoptotic area (CC-3 stained), of total tumor area", "setting": "[6]", "result": 27, "unit": "%"},
      {"measurement": "necrosis, of tumor area", "setting": "[6]; color saturation analysis", "result": "~30", "unit": "%"}
    ]}
  ]
}
